Each molecule was assayed against CDK12 wt/CycK (Homo sapiens (Human), UniProt Q9NYV4) (assay: Radiometric protein kinase assay (33PanQinase Activity Assay), Assay Condition A (thiol containing conditions)). Details: not given.
Assay type: biochemical
Method: Example 1—Assay Condition A (Thiol Containing Conditions)
Objective: The IC50 profile of test compounds was determined using three protein kinases.
Test compounds: The compounds were provided as pre-weighed powders in vials. The compounds were dissolved to 1×10^−02M by adding DMSO. 100 μl of each of the resulting stock solutions were transferred into column 2 of four 96 well “master plates”.
Prior to testing, the 1×10^−02M stock solutions in column 2 of the master plates were subjected to a serial, semi-logarithmic dilution using 100% DMSO as a solvent. […] Column 1 and 7 were filled with 100% DMSO as controls. Subsequently, 2×10 μl from each well of the serial diluted copy plates were aliquoted with a 96 channel pipettor into two identical sets of “compound dilution plates”.
In the process, 90 μl H2O were added to each well of a set of compound dilution plates. To minimize potential precipitation, the H2O was added to each plate only a few minutes before the transfer of the compound solutions into the assay plates. Each plate was shaken thoroughly, resulting in a “compound dilution plate/10% DMSO”.
For the assays, 5 μl solution from each well of the compound dilution plates/10% DMSO were transferred into the assay plates. The final volume of the assay was 50 μl. All compounds were tested at 10 final assay concentrations in the range from 1×10^−04M to 3×10^−09M, in singlicate. The final DMSO concentration in the reaction cocktails was 1% in all cases.
Recombinant protein kinases: All protein kinases were expressed in Sf9 insect cells or in E. coli as recombinant GST-fusion proteins or His-tagged proteins, either as full-length or enzymatically active fragments. All kinases were produced from human cDNAs and purified by either GSH-affinity chromatography or immobilized metal. Affinity tags were removed from a number of kinases during purification. The purity of the protein kinases was examined by SDS-PAGE/Coomassie staining, the identity was checked by mass spectroscopy.
Protein kinase assay: A radiometric protein kinase assay (^33PanQinase® Activity Assay) was used for measuring the kinase activity of the three protein kinases. All kinase assays were performed in 96-well FlashPlates™ from PerkinElmer (Boston, Mass., USA) in a 50 μl reaction volume. The reaction cocktail was pipetted in four steps in the following order: • 20 μl of assay buffer (standard buffer) • 5 μl of ATP solution (in H2O) • 5 μl of test compound (in 10% DMSO) • 20 μl enzyme/substrate mix
The following amounts of enzyme and substrate were used per well:
The reaction cocktails were incubated at 30° C. for 60 minutes. The reaction was stopped with 50 μl of 2% (v/v) H3PO4, plates were aspirated and washed two times with 200 μl 0.9% (w/v) NaCl. Incorporation of ^33Pi was determined with a microplate scintillation counter (Microbeta, Wallac). All assays were performed with a BeckmanCoulter/SAGIAN™ Core System.
Evaluation of raw data: The median value of the counts in column 1 (n=8) of each assay plate was defined as “low control”. This value reflects unspecific binding of radioactivity to the plate in the absence of a protein kinase but in the presence of the substrate. The median value of the counts in column 7 of each assay plate (n=8) was taken as the “high control”, i.e. full activity in the absence of any inhibitor. The difference between high and low control was taken as 100% activity.
As part of the data evaluation the low control value from a particular plate was subtracted from the high control value as well as from all 80 “compound values” of the corresponding plate. The residual activity (in %) for each well of a particular plate was calculated by using the following formula: Res. Activity (%)=100×[(cpm of compound−low control)/(high control−low control)]
The residual activities for each concentration and the compound IC50 values were calculated using Quattro Workflow V3.1.1 (Quattro Research GmbH, Munich, Germany).

Sequence of CDK12 wt/CycK (Q9NYV4 whole entry): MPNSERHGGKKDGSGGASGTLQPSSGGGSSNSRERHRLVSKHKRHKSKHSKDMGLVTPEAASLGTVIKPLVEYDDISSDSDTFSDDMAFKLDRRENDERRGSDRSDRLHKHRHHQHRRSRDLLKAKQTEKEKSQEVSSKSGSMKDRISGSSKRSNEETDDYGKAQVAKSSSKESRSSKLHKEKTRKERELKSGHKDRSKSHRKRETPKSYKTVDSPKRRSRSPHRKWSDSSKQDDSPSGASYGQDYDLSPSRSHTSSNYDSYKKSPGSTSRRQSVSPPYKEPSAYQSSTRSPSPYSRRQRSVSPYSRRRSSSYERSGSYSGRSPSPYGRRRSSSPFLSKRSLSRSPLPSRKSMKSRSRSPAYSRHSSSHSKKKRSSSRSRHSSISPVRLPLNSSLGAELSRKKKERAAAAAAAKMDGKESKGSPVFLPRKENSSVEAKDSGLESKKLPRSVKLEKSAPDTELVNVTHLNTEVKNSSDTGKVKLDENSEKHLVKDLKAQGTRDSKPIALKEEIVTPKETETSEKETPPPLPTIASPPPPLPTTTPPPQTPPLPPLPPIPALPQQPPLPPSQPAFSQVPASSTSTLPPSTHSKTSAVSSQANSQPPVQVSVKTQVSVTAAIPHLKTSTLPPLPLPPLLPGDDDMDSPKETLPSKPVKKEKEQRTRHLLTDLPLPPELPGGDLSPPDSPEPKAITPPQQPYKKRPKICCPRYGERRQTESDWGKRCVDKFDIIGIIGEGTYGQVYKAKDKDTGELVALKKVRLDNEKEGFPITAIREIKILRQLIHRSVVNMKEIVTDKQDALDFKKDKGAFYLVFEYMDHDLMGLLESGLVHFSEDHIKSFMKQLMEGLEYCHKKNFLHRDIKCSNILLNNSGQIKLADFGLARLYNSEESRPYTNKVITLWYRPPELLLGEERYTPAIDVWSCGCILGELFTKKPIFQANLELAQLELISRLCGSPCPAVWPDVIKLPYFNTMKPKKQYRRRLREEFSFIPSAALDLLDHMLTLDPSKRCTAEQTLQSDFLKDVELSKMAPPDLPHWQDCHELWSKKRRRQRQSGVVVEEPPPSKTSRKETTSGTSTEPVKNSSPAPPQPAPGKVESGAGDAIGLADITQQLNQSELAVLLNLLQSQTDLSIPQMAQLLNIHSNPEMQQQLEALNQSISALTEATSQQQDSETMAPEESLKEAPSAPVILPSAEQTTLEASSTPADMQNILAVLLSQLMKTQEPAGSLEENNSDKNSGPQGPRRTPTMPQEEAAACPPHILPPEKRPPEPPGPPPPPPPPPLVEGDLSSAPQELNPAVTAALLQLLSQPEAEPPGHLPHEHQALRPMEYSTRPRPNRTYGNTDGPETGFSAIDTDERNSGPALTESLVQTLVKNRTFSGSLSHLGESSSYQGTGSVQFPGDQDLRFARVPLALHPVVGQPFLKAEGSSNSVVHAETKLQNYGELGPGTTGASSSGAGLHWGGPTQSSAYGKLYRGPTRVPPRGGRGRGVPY
Sequence of CDK12 wt/CycK (O75909 whole entry partner): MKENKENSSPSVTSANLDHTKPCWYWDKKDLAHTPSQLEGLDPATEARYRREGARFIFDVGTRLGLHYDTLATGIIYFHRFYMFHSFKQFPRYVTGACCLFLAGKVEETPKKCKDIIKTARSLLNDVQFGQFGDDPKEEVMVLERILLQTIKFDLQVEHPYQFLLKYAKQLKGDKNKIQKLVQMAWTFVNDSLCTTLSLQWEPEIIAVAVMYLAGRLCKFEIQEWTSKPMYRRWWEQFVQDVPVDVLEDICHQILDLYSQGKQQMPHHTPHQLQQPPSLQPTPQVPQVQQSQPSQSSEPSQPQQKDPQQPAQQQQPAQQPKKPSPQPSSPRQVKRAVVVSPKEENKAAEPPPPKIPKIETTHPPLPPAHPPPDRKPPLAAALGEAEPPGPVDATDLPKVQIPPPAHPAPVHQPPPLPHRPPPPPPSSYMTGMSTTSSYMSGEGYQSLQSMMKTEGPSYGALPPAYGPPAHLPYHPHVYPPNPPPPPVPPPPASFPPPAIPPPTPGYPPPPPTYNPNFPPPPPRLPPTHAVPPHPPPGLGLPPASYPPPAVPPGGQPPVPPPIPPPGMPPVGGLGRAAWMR

| Structure (SMILES) | IC50 |
| --- | --- |
| C=CC(=O)Nc1ccc(C(=O)N2CC[C@@H](Nc3ncc(Cl)c(OCC)n3)C2)cc1OCCN(C)C [Example 144, (R)—N-(4-(3-((5-chloro-4-ethoxypyrimidin-2-yl)amino)pyrrolidine-1-carbonyl)-2-(2-(dimethylamino)ethoxy)phenyl)acrylamide] | < 100 nM |
| C=CC(=O)Nc1ccc(C(=O)N2CC[C@@H](Nc3ccc(C#N)cn3)C2)cc1 [Example 147, (R)—N-(4-(3-((5-cyanopyridin-2-yl)amino)pyrrolidine-1-carbonyl)phenyl)acrylamide] | 100 to 1000 nM |
| [2H]C([2H])([2H])Oc1nc(N[C@@H]2CCN(C(=O)c3ccc(NC(=O)C#C)cc3)C2)ncc1Cl [Example 154, (R)—N-(4-(3-((5-chloro-4-(trideuteromethoxy)pyrimidin-2-yl)amino)pyrrolidine-1-carbonyl)phenyl)propiolamide] | < 100 nM |
| C=CC(=O)Nc1ccc(C(=O)N2CC[C@@H](Nc3ncc(Br)cn3)C2)cc1OCCN1CCOCC1 [Example 156, (R)—N-(4-(3-((5-bromopyrimidin-2-yl)amino)pyrrolidine-1-carbonyl)-2-(2-morpholinoethoxy)phenyl)acrylamide] | 100 to 1000 nM |
| C=CC(=O)Nc1ccc(C(=O)N2CC[C@@H](Nc3ncc(C#N)cn3)C2)cc1OCCN(C)C [Example 166, (R)—N-(4-(3-((5-cyanopyrimidin-2-yl)amino)pyrrolidine-1-carbonyl)-2-(2-(dimethylamino)ethoxy)phenyl)acrylamide] | 100 to 1000 nM |

Same assay, conditions: thiol containing conditions (1.2 mM DTT), ATP 0.3 μM; read-out: CDK12 IC50 Condition A

| Structure (SMILES) | IC50 |
| --- | --- |
| C=CC(=O)Nc1ccc(C(=O)N2CC[C@@H](Nc3ncc(Cl)c(OCC)n3)C2)cc1OC1CCOC1 (stereo partly drawn) [Example 143, N-(4-((R)-3-((5-chloro-4-ethoxypyrimidin-2-yl)amino)pyrrolidine-1-carbonyl)-2-((tetrahydrofuran-3-yl)oxy)phenyl)acrylamide] | < 100 nM |
| C=CC(=O)Nc1ccc(C(=O)N2CC[C@@H](Nc3ncc(C#N)cn3)C2)cc1 [Example 148, (R)—N-(4-(3-((5-cyanopyrimidin-2-yl)amino)pyrrolidine-1-carbonyl)phenyl)acrylamide] | 100 to 1000 nM |
| C/C=C/C(=O)Nc1ccc(C(=O)N2CC[C@@H](Nc3ncc(Cl)c(OC)n3)C2)nc1 [Example 150, (R,E)-N-(6-(3-((5-chloro-4-methoxypyrimidin-2-yl)amino)pyrrolidine-1-carbonyl)pyridin-3-yl)but-2-enamide] | 100 to 1000 nM |
| CC#CC(=O)Nc1ccc(C(=O)N2CC[C@@H](Nc3ncc(Cl)c(OC)n3)C2)cc1 [Example 151, (R)—N-(4-(3-((5-chloro-4-methoxypyrimidin-2-yl)amino)pyrrolidine-1-carbonyl)phenyl)but-2-ynamide] | < 100 nM |
| C=CC(=O)Nc1ccc(C(=O)N2CC[C@@H](Nc3ncc(Cl)c(OCC)n3)C2)nc1 [Example 152, (R)—N-(6-(3-((5-chloro-4-ethoxypyrimidin-2-yl)amino)pyrrolidine-1-carbonyl)pyridin-3-yl)acrylamide] | < 100 nM |
| C=CC(=O)Nc1ccc(C(=O)N2CC[C@@H](Nc3ncc(Cl)c(OCCOCC)n3)C2)cc1 [Example 153, (R)—N-(4-(3-((5-chloro-4-(2-ethoxyethoxy)pyrimidin-2-yl)amino)pyrrolidine-1-carbonyl)phenyl)acrylamide] | 100 to 1000 nM |
| C=CC(=O)Nc1ccc(C(=O)N2CC[C@H](Nc3ncc(Cl)cn3)C2)cc1 [Example 155, (S)—N-(4-(3-((5-chloropyrimidin-2-yl)amino)pyrrolidine-1-carbonyl)phenyl)acrylamide] | 10000 to 30000 nM |
| C=CC(=O)Nc1ccc(C(=O)N2CC[C@@H](Nc3ncc(Br)cn3)C2)cc1N1CCC(N(C)C)CC1 [Example 158, (R)—N-(4-(3-((5-bromopyrimidin-2-yl)amino)pyrrolidine-1-carbonyl)-2-(4-(dimethylamino)piperidin-1-yl)phenyl)acrylamide] | 100 to 1000 nM |
| C=CC(=O)Nc1ccc(C(=O)N2CC[C@@H](Nc3ncc(Br)cn3)C2)cc1N(C)CCN(C)C [Example 159, (R)—N-(4-(3-((5-bromopyrimidin-2-yl)amino)pyrrolidine-1-carbonyl)-2-((2-(dimethylamino)ethyl)(methyl)amino)phenyl)acrylamide] | 1000 to 10000 nM |
| C=CC(=O)Nc1ccc(C(=O)N2CC[C@@H](Nc3ncc(C#N)c(OC)n3)C2)cc1 [Example 160, (R)—N-(4-(3-((5-cyano-4-methoxypyrimidin-2-yl)amino)pyrrolidine-1-carbonyl)phenyl)acrylamide] | 10000 to 30000 nM |
| C=CC(=O)Nc1ccc(C(=O)N2CC[C@@H](Nc3ncc(Br)cn3)C2)cc1OCCN1CCC(F)(F)CC1 [Example 162, (R)—N-(4-(3-((5-bromopyrimidin-2-yl)amino)pyrrolidine-1-carbonyl)-2-(2-(4,4-difluoropiperidin-1-yl)ethoxy)phenyl)acrylamide] | 100 to 1000 nM |
| C=CC(=O)Nc1ccc(C(=O)N2CC[C@@H](Nc3ncc(Br)cn3)C2)cc1O[C@@H]1CCN(C)C1 [Example 163, N-(4-((R)-3-((5-bromopyrimidin-2-yl)amino)pyrrolidine-1-carbonyl)-2-(((R)-1-methylpyrrolidin-3-yl)oxy)phenyl)acrylamide] | < 100 nM |
| C=CC(=O)Nc1ccc(C(=O)N2CC[C@@H](Nc3ncc(Br)cn3)C2)cc1O[C@H]1CCN(C)C1 [Example 164, N-(4-((R)-3-((5-bromopyrimidin-2-yl)amino)pyrrolidine-1-carbonyl)-2-(((S)-1-methylpyrrolidin-3-yl)oxy)phenyl)acrylamide] | < 100 nM |
| C=CC(=O)Nc1ccc(C(=O)N2CC[C@@H](Nc3ncc(C#N)c(OC)n3)C2)cc1OCCN(C)C [Example 165, (R)—N-(4-(3-((5-cyano-4-methoxypyrimidin-2-yl)amino)pyrrolidine-1-carbonyl)-2-(2-(dimethylamino)ethoxy)phenyl)acrylamide] | < 100 nM |
| COc1nc(N[C@@H]2CCN(C(=O)c3ccc(NC(=O)/C=C/CN4CC[C@@H](F)C4)cc3)C2)ncc1Cl [Example 167, (E)-N-(4-((R)-3-((5-chloro-4-methoxypyrimidin-2-yl)amino)pyrrolidine-1-carbonyl)phenyl)-4-((R)-3-fluoropyrrolidin-1-yl)but-2-enamide] | < 100 nM |
| COc1nc(N[C@@H]2CCN(C(=O)c3ccc(NC(=O)/C=C/CN4CCOCC4)cc3)C2)ncc1Cl [Example 168, (R,E)-N-(4-(3-((5-chloro-4-methoxypyrimidin-2-yl)amino)pyrrolidine-1-carbonyl)phenyl)-4-morpholinobut-2-enamide] | 100 to 1000 nM |
| COc1nc(N[C@@H]2CCN(C(=O)c3ccc(NC(=O)/C=C/CN4CC[C@H](F)C4)cc3)C2)ncc1Cl [Example 169, (E)-N-(4-((R)-3-((5-chloro-4-methoxypyrimidin-2-yl)amino)pyrrolidine-1-carbonyl)phenyl)-4-((S)-3-fluoropyrrolidin-1-yl)but-2-enamide] | < 100 nM |
| COc1nc(N[C@@H]2CCN(C(=O)c3ccc(NC(=O)/C=C/CN4CC[C@@H](F)C4)cn3)C2)ncc1Cl [Example 170, (E)-N-(6-((R)-3-((5-chloro-4-methoxypyrimidin-2-yl)amino)pyrrolidine-1-carbonyl)pyridin-3-yl)-4-((R)-3-fluoropyrrolidin-1-yl)but-2-enamide] | 100 to 1000 nM |
| COc1nc(N[C@@H]2CCN(C(=O)c3ccc(NC(=O)/C=C/CN4CC[C@H](F)C4)cn3)C2)ncc1Cl [Example 171, (E)-N-(6-((R)-3-((5-chloro-4-methoxypyrimidin-2-yl)amino)pyrrolidine-1-carbonyl)pyridin-3-yl)-4-((S)-3-fluoropyrrolidin-1-yl)but-2-enamide] | 100 to 1000 nM |

From patent publication US10894788B2, “Inhibitors of cyclin-dependent kinases” (Kinnate Biopharma Inc., priority 2018, dated 2021)
